One may read the MIC as the lowest concentration that inhibits growth of the organism.

In brackets after ≈: the same amount, converted by molar mass.

The test system of one experiment is Pseudomonas aeruginosa. Nature of the experiment: Antimicrobial activity against Pseudomonas aeruginosa ATCC 27853 assessed as diameter of inhibition zone at 20 mg/ml incubated for 24 hrs by disk diffusion method. Format: functional. The settings on record: read-out: DIZ.
On to `N#CC1=C(N)Oc2[nH]c(=O)[nH]c(=O)c2C1c1ccc(O)cc1` (stereo unspecified), for which the zone of inhibition at 20000 µg/mL is 15 mm.

`N#CC1=C(N)Oc2[nH]c(=O)[nH]c(=O)c2C1c1ccc([N+](=O)[O-])cc1` (stereo unspecified): the zone of inhibition at 20000 µg/mL stood at 3 mm.

As to `COc1ccccc1C1C(C#N)=C(N)Oc2[nH]c(=O)[nH]c(=O)c21` (stereo unspecified), the zone of inhibition at 20000 µg/mL is 7 mm.

As for `COc1ccc(C2C(C#N)=C(N)Oc3[nH]c(=O)[nH]c(=O)c32)cc1OC` (stereo unspecified), the zone of inhibition at 20000 µg/mL is 4 mm.

For `N#CC1=C(N)Oc2[nH]c(=O)[nH]c(=O)c2C1c1ccccc1` (stereo unspecified), the zone of inhibition at 20000 µg/mL turned out to be 14 mm.

`N#CC1=C(N)Oc2[nH]c(=O)[nH]c(=O)c2C1c1cccc(O)c1` (stereo unspecified): the zone of inhibition at 20000 µg/mL stood at 15 mm.

Consider `N#CC1=C(N)Oc2[nH]c(=O)[nH]c(=O)c2C1c1ccccc1[N+](=O)[O-]` (stereo unspecified), for which the zone of inhibition at 20000 µg/mL was 9 mm.

For a further experiment, the system named is Bacillus subtilis. Nature of the experiment: Antibacterial activity against Bacillus subtilis assessed as diameter of inhibition zone. Format: functional.
Conditions: not given
As for `N#CC1=C(N)Oc2[nH]c(=O)[nH]c(=O)c2C1c1ccc([N+](=O)[O-])cc1` (stereo unspecified), the “diameter of the inhibition zone (DIZ)” value is 18 mm.

With `N#CC1=C(N)Oc2[nH]c(=O)[nH]c(=O)c2C1c1ccc(F)cc1` (stereo unspecified), the “diameter of the inhibition zone (DIZ)” value came to 10 mm.

As for `COc1ccc(C2C(C#N)=C(N)Oc3[nH]c(=O)[nH]c(=O)c32)cc1OC` (stereo unspecified), the “diameter of the inhibition zone (DIZ)” value worked out at 10 mm.

With `N#CC1=C(N)Oc2[nH]c(=O)[nH]c(=O)c2C1c1ccccc1` (stereo unspecified), the “diameter of the inhibition zone (DIZ)” value stood at 10 mm.

On to `N#CC1=C(N)Oc2[nH]c(=O)[nH]c(=O)c2C1c1cccc(Br)c1` (stereo unspecified), for which the “diameter of the inhibition zone (DIZ)” value is reported as 18 mm.

Take `N#CC1=C(N)Oc2[nH]c(=O)[nH]c(=O)c2C1c1ccccc1Cl` (stereo unspecified): the “diameter of the inhibition zone (DIZ)” value turned out to be 18 mm.

The next experiment has as its system Bacillus cereus. Nature of the experiment: Antimicrobial activity against Bacillus cereus ATCC14579 assessed as diameter of inhibition zone at 20 mg/ml incubated for 24 hrs by disk diffusion method. Format: functional. The settings on record: read-out: DIZ. A general note: A growth-free zone around the sample is the usual read-out of agar diffusion tests.
Take `N#CC1=C(N)Oc2[nH]c(=O)[nH]c(=O)c2C1c1ccc(O)cc1` (stereo unspecified): the zone of inhibition at 20000 µg/mL was 14 mm.

In the case of `N#CC1=C(N)Oc2[nH]c(=O)[nH]c(=O)c2C1c1ccc([N+](=O)[O-])cc1` (stereo unspecified), the zone of inhibition at 20000 µg/mL was determined as 11 mm.

Consider `COc1ccccc1C1C(C#N)=C(N)Oc2[nH]c(=O)[nH]c(=O)c21` (stereo unspecified), for which the zone of inhibition at 20000 µg/mL worked out at 11 mm.

For the molecule `COc1ccc(C2C(C#N)=C(N)Oc3[nH]c(=O)[nH]c(=O)c32)cc1OC` (stereo unspecified), the zone of inhibition at 20000 µg/mL was found to be 9 mm.

For the molecule `N#CC1=C(N)Oc2[nH]c(=O)[nH]c(=O)c2C1c1ccccc1` (stereo unspecified), the zone of inhibition at 20000 µg/mL came out at 12 mm.

For `N#CC1=C(N)Oc2[nH]c(=O)[nH]c(=O)c2C1c1cccc(O)c1` (stereo unspecified), the zone of inhibition at 20000 µg/mL turned out to be 10 mm.

On to `N#CC1=C(N)Oc2[nH]c(=O)[nH]c(=O)c2C1c1ccccc1[N+](=O)[O-]` (stereo unspecified), for which the zone of inhibition at 20000 µg/mL amounted to 10 mm.

The test system of a further experiment is Staphylococcus aureus. Nature of the experiment: Antimicrobial activity against Staphylococcus aureus NCTC7447 assessed as diameter of inhibition zone at 20 mg/ml incubated for 24 hrs by disk diffusion method. Format: functional. The settings on record: read-out: DIZ.
With `N#CC1=C(N)Oc2[nH]c(=O)[nH]c(=O)c2C1c1ccc(O)cc1` (stereo unspecified), the zone of inhibition at 20000 µg/mL amounted to 15 mm.

For `N#CC1=C(N)Oc2[nH]c(=O)[nH]c(=O)c2C1c1ccc([N+](=O)[O-])cc1` (stereo unspecified), the zone of inhibition at 20000 µg/mL came out at 4 mm.

In the case of `COc1ccccc1C1C(C#N)=C(N)Oc2[nH]c(=O)[nH]c(=O)c21` (stereo unspecified), the zone of inhibition at 20000 µg/mL worked out at 15 mm.

For `COc1ccc(C2C(C#N)=C(N)Oc3[nH]c(=O)[nH]c(=O)c32)cc1OC` (stereo unspecified), the zone of inhibition at 20000 µg/mL is 8 mm.

On to `N#CC1=C(N)Oc2[nH]c(=O)[nH]c(=O)c2C1c1ccccc1` (stereo unspecified), for which the zone of inhibition at 20000 µg/mL turned out to be 8 mm.

Regarding `N#CC1=C(N)Oc2[nH]c(=O)[nH]c(=O)c2C1c1cccc(O)c1` (stereo unspecified), the zone of inhibition at 20000 µg/mL is 15 mm.

Consider `N#CC1=C(N)Oc2[nH]c(=O)[nH]c(=O)c2C1c1ccccc1[N+](=O)[O-]` (stereo unspecified), for which the zone of inhibition at 20000 µg/mL is 5 mm.

Another experiment deals with Klebsiella pneumoniae. Nature of the experiment: Antimicrobial activity against Klebsiella pneumoniae UC57 assessed as diameter of inhibition zone at 20 mg/ml incubated for 24 hrs by disk diffusion method. The format is functional. The note with it: read-out: DIZ.
Turning to `N#CC1=C(N)Oc2[nH]c(=O)[nH]c(=O)c2C1c1ccc(O)cc1` (stereo unspecified), the zone of inhibition at 20000 µg/mL turned out to be 10 mm.

Consider `N#CC1=C(N)Oc2[nH]c(=O)[nH]c(=O)c2C1c1ccc([N+](=O)[O-])cc1` (stereo unspecified), for which the zone of inhibition at 20000 µg/mL was 4 mm.

For the molecule `COc1ccccc1C1C(C#N)=C(N)Oc2[nH]c(=O)[nH]c(=O)c21` (stereo unspecified), the zone of inhibition at 20000 µg/mL was found to be 13 mm.

For `COc1ccc(C2C(C#N)=C(N)Oc3[nH]c(=O)[nH]c(=O)c32)cc1OC` (stereo unspecified), the zone of inhibition at 20000 µg/mL was determined as 14 mm.

Take `N#CC1=C(N)Oc2[nH]c(=O)[nH]c(=O)c2C1c1ccccc1` (stereo unspecified): the zone of inhibition at 20000 µg/mL is 5 mm.

Turning to `N#CC1=C(N)Oc2[nH]c(=O)[nH]c(=O)c2C1c1cccc(O)c1` (stereo unspecified), the zone of inhibition at 20000 µg/mL was found to be 8 mm.

On to `N#CC1=C(N)Oc2[nH]c(=O)[nH]c(=O)c2C1c1ccccc1[N+](=O)[O-]` (stereo unspecified), for which the zone of inhibition at 20000 µg/mL came to 6 mm.

For another experiment, the system named is Staphylococcus aureus. Nature of the experiment: Antibacterial activity against Staphylococcus aureus assessed as diameter of inhibition zone. The format is functional.
Conditions: not given
With `N#CC1=C(N)Oc2[nH]c(=O)[nH]c(=O)c2C1c1ccc(O)cc1` (stereo unspecified), the “diameter of the inhibition zone (DIZ)” value is reported as 10 mm.

Turning to `N#CC1=C(N)Oc2[nH]c(=O)[nH]c(=O)c2C1c1ccc([N+](=O)[O-])cc1` (stereo unspecified), the “diameter of the inhibition zone (DIZ)” value was 16 mm.

Turning to `N#CC1=C(N)Oc2[nH]c(=O)[nH]c(=O)c2C1c1ccccc1` (stereo unspecified), the “diameter of the inhibition zone (DIZ)” value came to 8 mm.

In the case of `N#CC1=C(N)Oc2[nH]c(=O)[nH]c(=O)c2C1c1cccc(Br)c1` (stereo unspecified), the “diameter of the inhibition zone (DIZ)” value is 16 mm.

In the case of `N#CC1=C(N)Oc2[nH]c(=O)[nH]c(=O)c2C1c1ccccc1Cl` (stereo unspecified), the “diameter of the inhibition zone (DIZ)” value was determined as 20 mm.

The test system of another experiment is Salmonella typhimurium. Nature of the experiment: Antibacterial activity against Salmonella typhimurium assessed as diameter of inhibition zone. Format: functional, Salmonella enterica subsp. enterica serovar Typhimurium.
Conditions: not given
For `N#CC1=C(N)Oc2[nH]c(=O)[nH]c(=O)c2C1c1ccc(O)cc1` (stereo unspecified), the “diameter of the inhibition zone (DIZ)” value was 10 mm.

On to `N#CC1=C(N)Oc2[nH]c(=O)[nH]c(=O)c2C1c1ccc([N+](=O)[O-])cc1` (stereo unspecified), for which the “diameter of the inhibition zone (DIZ)” value turned out to be 14 mm.

For `N#CC1=C(N)Oc2[nH]c(=O)[nH]c(=O)c2C1c1ccc(F)cc1` (stereo unspecified), the “diameter of the inhibition zone (DIZ)” value was found to be 12 mm.

As for `COc1ccc(C2C(C#N)=C(N)Oc3[nH]c(=O)[nH]c(=O)c32)cc1OC` (stereo unspecified), the “diameter of the inhibition zone (DIZ)” value is 8 mm.

With `N#CC1=C(N)Oc2[nH]c(=O)[nH]c(=O)c2C1c1ccccc1` (stereo unspecified), the “diameter of the inhibition zone (DIZ)” value stood at 10 mm.

Turning to `N#CC1=C(N)Oc2[nH]c(=O)[nH]c(=O)c2C1c1cccc(Br)c1` (stereo unspecified), the “diameter of the inhibition zone (DIZ)” value turned out to be 16 mm.

With `N#CC1=C(N)Oc2[nH]c(=O)[nH]c(=O)c2C1c1ccccc1Cl` (stereo unspecified), the “diameter of the inhibition zone (DIZ)” value was 18 mm.

The next experiment deals with Mycobacterium tuberculosis. Nature of the experiment: Antitubercular activity against Mycobacterium tuberculosis H37Rv assessed as bacterial growth inhibition incubated for 24 hrs by MABA assay.
Conditions: not given
The format is functional. (Resazurin is reduced to fluorescent resorufin, in cell work by metabolically active cells.)
On to `O=c1nc2c3c([nH]1)Oc1c(Cl)cc(Cl)cc1C3c1c(c3ccccc3oc1=O)O2` (stereo unspecified), for which the MIC was 50 µg/mL (≈ 117 µM).

For the molecule `O=c1nc2c3c([nH]1)Oc1ccccc1C3c1c(c3ccccc3oc1=O)O2` (stereo unspecified), the MIC came to 12.5 µg/mL (≈ 34.9 µM).

In the case of `O=c1nc2c3c([nH]1)Oc1ccc(O)cc1C3c1c(c3ccccc3oc1=O)O2` (stereo unspecified), the MIC is 50 µg/mL (≈ 134 µM).

For the next experiment, the system named is Escherichia coli. Nature of the experiment: Antimicrobial activity against Escherichia coli ATCC 14169 assessed as diameter of inhibition zone at 20 mg/ml incubated for 24 hrs by disk diffusion method. The settings on record: read-out: DIZ. The format is functional.
Consider `N#CC1=C(N)Oc2[nH]c(=O)[nH]c(=O)c2C1c1ccc(O)cc1` (stereo unspecified), for which the zone of inhibition at 20000 µg/mL stood at 15 mm.

On to `N#CC1=C(N)Oc2[nH]c(=O)[nH]c(=O)c2C1c1ccc([N+](=O)[O-])cc1` (stereo unspecified), for which the zone of inhibition at 20000 µg/mL stood at 12 mm.

`COc1ccccc1C1C(C#N)=C(N)Oc2[nH]c(=O)[nH]c(=O)c21` (stereo unspecified): the zone of inhibition at 20000 µg/mL came to 9 mm.

Consider `COc1ccc(C2C(C#N)=C(N)Oc3[nH]c(=O)[nH]c(=O)c32)cc1OC` (stereo unspecified), for which the zone of inhibition at 20000 µg/mL was determined as 8 mm.

As for `N#CC1=C(N)Oc2[nH]c(=O)[nH]c(=O)c2C1c1ccccc1` (stereo unspecified), the zone of inhibition at 20000 µg/mL turned out to be 13 mm.

For the molecule `N#CC1=C(N)Oc2[nH]c(=O)[nH]c(=O)c2C1c1cccc(O)c1` (stereo unspecified), the zone of inhibition at 20000 µg/mL turned out to be 14 mm.

As for `N#CC1=C(N)Oc2[nH]c(=O)[nH]c(=O)c2C1c1ccccc1[N+](=O)[O-]` (stereo unspecified), the zone of inhibition at 20000 µg/mL stood at 11 mm.

The subject of the next experiment is Escherichia coli. Nature of the experiment: Antibacterial activity against Escherichia coli assessed as diameter of inhibition zone. Format: functional.
Conditions: not given
Regarding `N#CC1=C(N)Oc2[nH]c(=O)[nH]c(=O)c2C1c1ccc(O)cc1` (stereo unspecified), the “diameter of the inhibition zone (DIZ)” value amounted to 10 mm.

In the case of `N#CC1=C(N)Oc2[nH]c(=O)[nH]c(=O)c2C1c1ccc([N+](=O)[O-])cc1` (stereo unspecified), the “diameter of the inhibition zone (DIZ)” value came out at 16 mm.

For the molecule `N#CC1=C(N)Oc2[nH]c(=O)[nH]c(=O)c2C1c1ccc(F)cc1` (stereo unspecified), the “diameter of the inhibition zone (DIZ)” value was found to be 8 mm.

Take `N#CC1=C(N)Oc2[nH]c(=O)[nH]c(=O)c2C1c1cccc(Br)c1` (stereo unspecified): the “diameter of the inhibition zone (DIZ)” value was found to be 14 mm.

On to `N#CC1=C(N)Oc2[nH]c(=O)[nH]c(=O)c2C1c1ccccc1Cl` (stereo unspecified), for which the “diameter of the inhibition zone (DIZ)” value is reported as 14 mm.

The record behind these values is ChEMBL document CHEMBL5241112, “Insights into the recent progress in the medicinal chemistry of pyranopyrimidine analogs” (RSC Med Chem, 2022).
